Assay results taken from patent publication EP1285920A1, “C10 Ester sustituted taxanes as antitumor agents” (Florida State University Research Foundation, Inc., priority 2001, dated 2003).

Tested on: SKMES lung carcinoma
Assay: In vivo evaluation of compound 0503 against SKMES human lung carcinoma xenograft, i.v. dose range (Example 20)
Settings: for % Total Response: complete or partial responses among evaluable animals; for MDS (n): mean days of survival until neoplasm reached 2.0 g, 6 mice, terminated Day 60; for survival extension / MDS: other mice; for MDS: tumor 2.0 g
Method: The antitumor compound was prepared in a vehicle of 10% ethanol and 90% Liposyn III in the manner as described for Emulsion 3 of Example 9.
Treatment groups consisted of: vehicle only (Group 1), and antitumor compound 0503 (dosages of 104 mg/kg, 72.8 mg/kg, 41.6 mg/kg, and 10.4 mg/kg; Groups 2-5, respectively).

[1] = 10.4 mg/kg, single IV bolus Day 1
[2] = 10.4 mg/kg, single IV bolus Day 1, number of mice of 6, Day 60
[3] = 41.6 mg/kg, single IV bolus Day 1
[4] = 41.6 mg/kg, single IV bolus Day 1, number of mice of 6, Day 60
[5] = 72.8 mg/kg, single IV bolus Day 1
[6] = 72.8 mg/kg, single IV bolus Day 1, number of mice of 6, Day 60
[7] = 104 mg/kg, single IV bolus Day 1
[8] = 104 mg/kg, single IV bolus Day 1, number of mice of 6, Day 60
[9] = SKMES, 72.8 mg/kg single IV bolus (Group 3)
[10] = SKMES, 72.8 mg/kg single IV bolus (Group 3), six mice
[11] = SKMES, 104 mg/kg single IV bolus (Group 2)

For `CCC(=O)O[C@H]1C(=O)[C@@]2(C)[C@H]([C@H](OC(=O)c3ccccc3)[C@]3(O)C[C@H](OC(=O)[C@H](O)[C@@H](NC(=O)OC(C)(C)C)c4ccccn4)C(C)=C1C3(C)C)[C@]1(OC(C)=O)CO[C@@H]1C[C@@H]2O` [Compound 0503], the “% Total Response” value [1] was 0%, the “MDS (n)” value [1] was 26.0 ± 2.5 (6) days and the “Toxic Deaths” value (10.4 mg/kg, single IV bolus Day 1, number of mice of 6) was 0. For the same compound, the “Partial Response” value [2] was 0, the “Stable Disease” value [2] was 0 and the Survivors [2] was 0. The “% Total Response” value [3] was 0%, the “MDS (n)” value [3] was 33.8 ± 3.4 (5) days and the “Toxic Deaths” value (41.6 mg/kg, single IV bolus Day 1, number of mice of 6) was 0. For the same compound, the “Partial Response” value [4] was 0, the “Stable Disease” value [4] was 1 and the Survivors [4] was 1. For the same compound, the “% Total Response” value [5] was 33.3%, the “MDS (n)” value [5] was 37.4 ± 5.2 (4) days and the “Toxic Deaths” value (72.8 mg/kg, single IV bolus Day 1, number of mice of 6) was 0. The “Partial Response” value [6] was 1, the “Stable Disease” value [6] was 0 and the Survivors [6] was 2. For the same compound, the “% Total Response” value [7] was 50.0%, the “MDS (n)” value [7] was 46.6 ± 3.2 (3) days and the “Toxic Deaths” value (104 mg/kg, single IV bolus Day 1, number of mice of 6) was 0. The “Partial Response” value [8] was 0, the “Stable Disease” value [8] was 0 and the Survivors [8] was 3. For the same compound, the survival extension [9] was 114%, the MDS [9] was 37.4 days and the Complete Response [10] was “One”. For the same compound, the Partial Response [10] was “one”, the complete tumor regressions (SKMES, 104 mg/kg single IV bolus (Group 2), 10% ethanol, 90% Liposyn III, six mice) was “Three” and the survival extension [11] was 167%. For the same compound, the MDS [11] was 46.6 days.
